Measurements published in patent publication US20240208895A1, “BRANCHED-CHAIN AMINO ACID DERIVATIVES TO TREAT DISEASE” (INTRABIO LTD., priority 2021, published 2024).

Experiments:
[1] = physchem; format: physicochemical
Source text: The physiochemical parameters of L-leucine were compared with N-acetyl-L-leucine. […] Log P is the octanol:water partition coefficient for the neutral form of a compound. In contrast, log D considers the ionization state of a molecule in aqueous (biological) solution resulting from basic groups gaining a proton and acidic groups losing a proton, and as such is better correlated with passive diffusion across membranes.

[2] = biological target: T1, monocarboxylate transporter (MCT1) (Homo sapiens, UniProt P53985); conditions: read-out: Km, uptake by MCT1; uptake 1 min, room temperature
T1 sequence (P53985 1-500): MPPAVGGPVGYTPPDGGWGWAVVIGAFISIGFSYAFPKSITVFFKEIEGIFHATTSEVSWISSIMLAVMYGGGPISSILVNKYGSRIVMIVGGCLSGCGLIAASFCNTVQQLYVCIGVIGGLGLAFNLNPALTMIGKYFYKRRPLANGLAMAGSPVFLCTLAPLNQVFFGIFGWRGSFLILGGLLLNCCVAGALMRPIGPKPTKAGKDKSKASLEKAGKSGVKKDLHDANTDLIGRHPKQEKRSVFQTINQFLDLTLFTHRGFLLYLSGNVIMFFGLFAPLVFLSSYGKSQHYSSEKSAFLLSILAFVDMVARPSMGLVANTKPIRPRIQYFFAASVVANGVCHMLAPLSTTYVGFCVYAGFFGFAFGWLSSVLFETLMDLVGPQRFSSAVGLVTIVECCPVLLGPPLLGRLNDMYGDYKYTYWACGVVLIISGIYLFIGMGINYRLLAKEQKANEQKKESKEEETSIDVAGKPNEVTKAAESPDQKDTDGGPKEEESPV
Description: (§1) The known probe substrates used as positive controls are 3 μM chlorothiazide for OAT1, 2 μM estrone-3-sulfate for OAT3, 10 μM gabapentin for LAT1, 50 μM Gly-Sar for PepT1, 500 μM thiophene-2-glyoxylic acid for MCT1.
Enzyme kinetic data for uptake and metabolism of a Compound of the Disclosure is analysed by fitting the Michaelis-Menten equation to the data. V0=Vmax[S]/Km+[S], where V0 is initial velocity, [S] is substrate concentration, Vmax is maximum velocity and Km is substrate concentration at half Vmax. All fitting is performed using GraphPad Prism 8.4 software (GraphPad Software Inc). No weighting scheme is applied.

[3] = biological target: T1, monocarboxylate transporter (MCT1); assay: Inhibition of MCT1 uptake of known substrate 2-thiophene glyoxylate; format: cell-based; design: expressed in transfected cells
Description: FIG. 4(c) is a line graph showing concentration-inhibition curves for the inhibition of uptake of the known substrate 2-thiophene glyoxylate (500 μM) for MCT1. DMSO (0.5%) was the solvent control (SC) and the known inhibitor phloretin (500 μM) was the positive control (PC).
FIG. 4(d) is a line graph showing concentration-inhibition curves for the inhibition of uptake of the known substrate 2-thiophene glyoxylate (500 μM) for MCT1. DMSO (0.5%) was the solvent control (SC) and the known inhibitor phloretin (500 μM) was the positive control (PC).
as §1
The IC50 value for the test item is determined by fitting the Hill equation in the following form:
where A % is the percent activity remaining (the mean cellular uptake observed in the solvent control sample set to 100% and the mean cellular uptake observed in the presence of the positive control inhibitor set to 0%), Top and Bottom are the upper and lower plateau of A %. [I] is the inhibitor concentration and IC50 is the inhibitor concentration where the remaining activity is at the midpoint between the Top and Bottom.

[4] = biological target: T2, OAT3 (SLC22A8) (Homo sapiens, UniProt Q8TCC7); assay: Inhibition of OAT3 uptake of known substrate estrone-3-sulfate; format: cell-based; conditions: probe substrate estrone-3-sulfate 2 μM
T2 construct: host or cells: HEK-293
T2 sequence (Q8TCC7 1-542): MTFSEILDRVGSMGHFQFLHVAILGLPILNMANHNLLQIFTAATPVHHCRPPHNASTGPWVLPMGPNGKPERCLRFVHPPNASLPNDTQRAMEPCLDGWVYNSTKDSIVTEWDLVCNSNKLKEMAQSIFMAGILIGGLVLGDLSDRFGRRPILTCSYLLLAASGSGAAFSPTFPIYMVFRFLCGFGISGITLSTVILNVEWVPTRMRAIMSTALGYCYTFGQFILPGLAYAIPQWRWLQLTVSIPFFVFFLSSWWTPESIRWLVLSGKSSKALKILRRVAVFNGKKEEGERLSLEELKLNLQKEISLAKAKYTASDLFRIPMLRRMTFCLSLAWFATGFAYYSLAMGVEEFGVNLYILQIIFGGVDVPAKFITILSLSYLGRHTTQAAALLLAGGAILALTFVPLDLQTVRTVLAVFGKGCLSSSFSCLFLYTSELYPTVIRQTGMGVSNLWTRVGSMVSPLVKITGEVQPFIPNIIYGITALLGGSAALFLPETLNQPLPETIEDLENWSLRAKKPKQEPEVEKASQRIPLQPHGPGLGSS
Description: DMSO (0.5%) was the solvent control (SC) and the known inhibitor diclofenac (100 μM) was the positive control (PC). Data were fit to either the Michalis-Menten equation for uptake or the Hill equation for inhibition using the solvent control to define the top and the positive control inhibitor to define the bottom. Symbols represent the mean±SEM, n=3.
Human OAT1 (SLC22A6) and OAT3 (SLC22A8) overexpressing HEK-293 cells and control cells without transfected transporter (Corning® TransportoCells™) are plated to 24-well plates and cellular uptake of 10 to 100 μg/mL of a Compound of the Disclosure is measured in the absence and presence of transporter inhibitors. Uptake of a Compound of the Disclosure into control cells is measured only without chemical inhibitors. […] Cells are grown in DMEM (Gibco 4196, high glucose, without sodium pyruvate) supplemented with MEM non-essential amino acids and 10% fetal bovine serum. Cells are re-fed with fresh medium after attachment (4-6 hours post-seeding). Cell are plated at a density of 4×10^5/well in 24-well plates coated with poly-D-lysine. Transporter assays are conducted in 400 μL of HBSS supplemented with 10 mM Hepes, pH 7.4 […]
The IC50 value for the test item is determined by fitting the Hill equation in the following form: […]

Compound: CC(=O)N[C@@H](CC(C)C)C(=O)O [N-acetyl-L-leucine]
- logD [1]: -2.54
- Km [2]: 3000 µM
- Ki ([3]; assuming competitive inhibition, read-out: affinity (Ki) for MCT1, Cheng-Prusoff equation): 4.3 mM
- IC50 ([3]; probe substrate 2-thiophene glyoxylate 500 μM): 15 mM
- IC50 [4]: 0.7 mM
